Earlier results in patent publication EP0409862B1, “TOPICAL PREPARATIONS” (Seton Healthcare Group plc, priority 1988, dated 1989).

solubility in various organic liquids such as alcohols: soluble
solubility in water (fine powder): essentially insoluble
Structure (SMILES): COC1=CC(=O)C[C@@H](C)[C@]12Oc1c(Cl)c(OC)cc(OC)c1C2=O [Griseofulvin]
